Assay results taken from PMC8371902, “Phase 1 study of M2698, a p70S6K/AKT dual inhibitor, in patients with advanced cancer” (Journal of Hematology & Oncology, 2021).

Experiment: Plasma pharmacokinetics of M2698, non-compartmental
Type: in vivo, human
Experimental: Plasma PK parameters on days 1 and 15 were calculated using non-compartmental methods.

[1] = day 1 single dose, monotherapy 15 mg, n=3
[2] = day 1 single dose, monotherapy 30 mg, n=3
[3] = day 1 single dose, monotherapy 60 mg, n=6
[4] = day 1 single dose, monotherapy 75 mg, n=4
[5] = day 1 single dose, monotherapy 110 mg, n=3
[6] = day 1 single dose, monotherapy 160 mg, n=5
[7] = day 1 single dose, monotherapy 200 mg, n=3
[8] = day 1 single dose, monotherapy 240 mg, n=9
[9] = day 1 single dose, monotherapy 320 mg, n=7
[10] = day 1 single dose, monotherapy 380 mg, n=4
[11] = day 15, combination with tamoxifen, M2698 80 mg, n=2
[12] = day 15, combination with tamoxifen, M2698 160 mg, n=5
[13] = day 15, combination with tamoxifen, M2698 200 mg, n=6
[14] = day 15, combination with tamoxifen, M2698 240 mg (intermittent regimen), n=4
[15] = day 15, combination with trastuzumab, M2698 80 mg, n=3
[16] = day 15, combination with trastuzumab, M2698 160 mg, n=7

In the case of `NC(=O)c1cccc2c(N[C@H](CN3CCC3)c3ccc(Cl)c(C(F)(F)F)c3)ncnc12` [M2698], the “AUC0–24, Geo mean (GeoCV%)” value [1] is reported as 759 (67.2) ng∙h/mL, the “Cmax, GeoMean (GeoCV%)” value [1] is reported as 53.0 (91.1) ng/mL and the “tmax, median (range)” value [1] is reported as 3.08 (2.07–5.00) hours. For the same compound, the “AUC0–24, Geo mean (GeoCV%)” value [2] was 1480 (52.9) ng∙h/mL, the “Cmax, GeoMean (GeoCV%)” value [2] was 87.3 (55.9) ng/mL and the “tmax, median (range)” value [2] was 4.00 (3.97–5.17) hours. The “AUC0–24, Geo mean (GeoCV%)” value [3] was 2730 (36.3) ng∙h/mL, the “Cmax, GeoMean (GeoCV%)” value [3] was 177 (38.3) ng/mL and the “tmax, median (range)” value [3] was 4.08 (2.05–5.00) hours. The “AUC0–24, Geo mean (GeoCV%)” value [4] was 4370 (85.2) ng∙h/mL, the “Cmax, GeoMean (GeoCV%)” value [4] was 269 (114.4) ng/mL and the “tmax, median (range)” value [4] was 4.83 (2.98–9.50) hours. For the same compound, the “AUC0–24, Geo mean (GeoCV%)” value [5] was 4200 (21.0) ng∙h/mL, the “Cmax, GeoMean (GeoCV%)” value [5] was 246 (21.7) ng/mL and the “tmax, median (range)” value [5] was 6.08 (5.98–24.3) hours. For the same compound, the “AUC0–24, Geo mean (GeoCV%)” value [6] was 8650 (49.8) ng∙h/mL, the “Cmax, GeoMean (GeoCV%)” value [6] was 543 (65.3) ng/mL and the “tmax, median (range)” value [6] was 4.05 (2.15–5.23) hours. The “AUC0–24, Geo mean (GeoCV%)” value [7] was 8180 (102.8) ng∙h/mL, the “Cmax, GeoMean (GeoCV%)” value [7] was 472 (110.1) ng/mL and the “tmax, median (range)” value [7] was 4.60 (4.07–5.02) hours. The “AUC0–24, Geo mean (GeoCV%)” value (day 1 single dose, monotherapy 240 mg, n=8 for AUC) was 9200 (74.5) ng∙h/mL, the “Cmax, GeoMean (GeoCV%)” value [8] was 590 (81.4) ng/mL and the “tmax, median (range)” value [8] was 6.25 (4.00–24.3) hours. The “AUC0–24, Geo mean (GeoCV%)” value (day 1 single dose, monotherapy 320 mg, n=6 for AUC) was 15200 (104.0) ng∙h/mL, the “Cmax, GeoMean (GeoCV%)” value [9] was 802 (112.0) ng/mL and the “tmax, median (range)” value [9] was 4.73 (4.00–24.1) hours. For the same compound, the “AUC0–24, Geo mean (GeoCV%)” value (day 1 single dose, monotherapy 380 mg, n=2 for AUC) was 16500 (36.6) ng∙h/mL, the “Cmax, GeoMean (GeoCV%)” value [10] was 1320 (55.0) ng/mL and the “tmax, median (range)” value [10] was 6.28 (4.12–9.52) hours. The “AUC0–τ, Geo mean (GeoCV%)” value [11] was 16,000 (44.7) ng∙h/mL, the “Accumulation ratio (Cmax), Geo mean (GeoCV%)” value (from here on “Accumulation ratio … (GeoCV%)”) [11] was 2.31 (20.6) and the “Cmax, GeoMean (GeoCV%)” value [11] was 819 (50.9) ng/mL. The “tmax, median (range)” value [11] was 4.5 (4.00–5.00) hours, the “AUC0–τ, Geo mean (GeoCV%)” value [12] was 22,000 (42.9) ng∙h/mL and the “Accumulation ratio … (GeoCV%)” value [12] was 1.98 (26.6). For the same compound, the “Cmax, GeoMean (GeoCV%)” value [12] was 1270 (48.3) ng/mL, the “tmax, median (range)” value [12] was 3.33 (2.95–5.58) hours and the “AUC0–τ, Geo mean (GeoCV%)” value [13] was 27,000 (29.3) ng∙h/mL. For the same compound, the “Accumulation ratio … (GeoCV%)” value [13] was 3.47 (65.7), the “Cmax, GeoMean (GeoCV%)” value [13] was 1380 (31.3) ng/mL and the “tmax, median (range)” value [13] was 3.98 (3.07–10.0) hours. For the same compound, the “AUC0–τ, Geo mean (GeoCV%)” value [14] was 20,600 (41.7) ng∙h/mL, the “Accumulation ratio … (GeoCV%)” value [14] was 1.7 (40.9) and the “Cmax, GeoMean (GeoCV%)” value [14] was 1110 (39.9) ng/mL. The “tmax, median (range)” value [14] was 3.15 (2.13–4.00) hours, the “AUC0–τ, Geo mean (GeoCV%)” value [15] was 7400 (34.3) ng∙h/mL and the “Accumulation ratio … (GeoCV%)” value [15] was 2.00 (26.1). For the same compound, the “Cmax, GeoMean (GeoCV%)” value [15] was 405 (23.7) ng/mL, the “tmax, median (range)” value [15] was 3.07 (2.03–5.58) hours and the “AUC0–τ, Geo mean (GeoCV%)” value [16] was 47,200 (49.3) ng∙h/mL. For the same compound, the “Accumulation ratio … (GeoCV%)” value [16] was 2.73 (31.5), the “Cmax, GeoMean (GeoCV%)” value [16] was 2560 (52.8) ng/mL and the “tmax, median (range)” value [16] was 5.88 (3.05–8.08) hours. The “AUC0–τ, Geo mean (GeoCV%)” value (day 15, monotherapy 15 mg, n=3) was 2540 (6.0) ng∙h/mL.
